Tests used:
Experiment in all cases: Histone peptide microarray
Assay type in all cases: binding, human
Conditions in all cases: sheet "Array Heatmap"
AIRE (PP) = tested on: AIRE (PP)
In short: (§1)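 GST-tagged PHD readers, 0.5 μM, probed on a microarray of 293 synthetic histone peptides carrying single or combinatorial PTMs (optimized Petell protocol). Signals are averaged over 4 replicates and expressed as relative binding.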

CHD4 (PPCC) = tested on: CHD4 (PPCC)
In short: as §1

DPF2 (PPC2W2) = tested on: DPF2 (PPC2W2)
In short: as §1

BPTF (PB) = tested on: BPTF (PB)
In short: as §1

KDM4C (TTP) = tested on: KDM4C (TTP)
In short: as §1

RAG2 = tested on: RAG2
In short: as §1

MORC3 (CW) = tested on: MORC3 (CW)
In short: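 Each reader, produced as a GST fusion and purified, was tested at 0.5 μM on synthetic histone peptides (293 in total) carrying single or combinatorial marks. Intensities averaged over four replicates.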

TAF3 = tested on: TAF3
In short: as §1

KDM5A (3) = tested on: KDM5A (3)
In short: as §1

PHF21A = tested on: PHF21A
In short: as §1

ING5 = tested on: ING5
In short: as §1

PHRF1 (RP) = tested on: PHRF1 (RP)
In short: as §1

KDM5B (3) = tested on: KDM5B (3)
In short: as §1

PHF13 = tested on: PHF13
In short: as §1

CHD5 (PCC) = tested on: CHD5 (PCC)
In short: as §1

ING3 = tested on: ING3
In short: as §1

KDM5A (1) = tested on: KDM5A (1)
In short: as §1

PHF23 = tested on: PHF23
In short: as §1

KDM7A = tested on: KDM7A
In short: as §1

SP140L = tested on: SP140L
In short: as §1

PHF2 = tested on: PHF2
In short: as §1

ING1 = tested on: ING1
In short: as §1

ING4 = tested on: ING4
In short: as §1

ING2 = tested on: ING2
In short: as §1

PHF8 = tested on: PHF8
In short: as §1

BAZ2B = tested on: BAZ2B
In short: as §1

KDM5B (1) = tested on: KDM5B (1)
In short: as §1

CHD5 (PPCC) = tested on: CHD5 (PPCC)
In short: as §1

MLL5 = tested on: MLL5
In short: as §1

TRIM66 (PB) = tested on: TRIM66 (PB)
In short: as §1

DIDO1 = tested on: DIDO1
In short: as §1

[1] = GST-tagged reader, histone peptide array, total n = 4

H3K18me2: H3 1-20 [Peptide H3K18me2]
Array Heatmap signal, AIRE (PP) (AIRE (PP); [1]): 0.593
Array Heatmap signal, CHD4 (PPCC) (CHD4 (PPCC); [1]): 0.5307
Array Heatmap signal, DPF2 (PPC2W2) (DPF2 (PPC2W2); [1]): 0.713
Array Heatmap signal, BPTF (PB) (BPTF (PB); [1]): 0.334
Array Heatmap signal, KDM4C (TTP) (KDM4C (TTP); [1]): 0.5076
Array Heatmap signal, RAG2 (RAG2; [1]): 0.2403
Array Heatmap signal, MORC3 (CW) (MORC3 (CW); [1]): 0.432
Array Heatmap signal, TAF3 (TAF3; [1]): 0.2642
Array Heatmap signal, KDM5A (3) (KDM5A (3); [1]): 0.5609
Array Heatmap signal, PHF21A (PHF21A; [1]): 0.4944
Array Heatmap signal, ING5 (ING5; [1]): 0.3565
Array Heatmap signal, PHRF1 (RP) (PHRF1 (RP); [1]): 0.655
Array Heatmap signal, KDM5B (3) (KDM5B (3); [1]): 0.4828
Array Heatmap signal, PHF13 (PHF13; [1]): 0.5815
Array Heatmap signal, CHD5 (PCC) (CHD5 (PCC); [1]): 0.7562
Array Heatmap signal, ING3 (ING3; [1]): 0.447
Array Heatmap signal, KDM5A (1) (KDM5A (1); [1]): 0.4854
Array Heatmap signal, PHF23 (PHF23; [1]): 0.5164
Array Heatmap signal, KDM7A (KDM7A; [1]): 0.3495
Array Heatmap signal, SP140L (SP140L; [1]): 0.3547
Array Heatmap signal, PHF2 (PHF2; [1]): 0.4223
Array Heatmap signal, ING1 (ING1; [1]): 0.5097
Array Heatmap signal, ING4 (ING4; [1]): 0.4353
Array Heatmap signal, ING2 (ING2; [1]): 0.5955
Array Heatmap signal, PHF8 (PHF8; [1]): 0.3314
Array Heatmap signal, BAZ2B (BAZ2B; [1]): 0.4823
Array Heatmap signal, KDM5B (1) (KDM5B (1); [1]): 0.731
Array Heatmap signal, CHD5 (PPCC) (CHD5 (PPCC); [1]): 0.548
Array Heatmap signal, MLL5 (MLL5; [1]): 0.5113
Array Heatmap signal, TRIM66 (PB) (TRIM66 (PB); [1]): 0.5483
Array Heatmap signal, DIDO1 (DIDO1; [1]): 0.6131

H3K23ac (1-32): H3 1-32
Array Heatmap value (peptide array signal) (AIRE (PP); AIRE (PP), each array performed twice, total n = 4): 0.5525
Array Heatmap value (peptide array signal) (CHD4 (PPCC); CHD4 (PPCC), each array performed twice, total n = 4): 0.5377
Array Heatmap value (peptide array signal) (DPF2 (PPC2W2); DPF2 (PPC2W2), each array performed twice, total n = 4): 0.7046
Array Heatmap value (peptide array signal) (BPTF (PB); BPTF (PB), each array performed twice, total n = 4): 0.3332
Array Heatmap value (peptide array signal) (KDM4C (TTP); KDM4C (TTP), each array performed twice, total n = 4): 0.4876
Array Heatmap value (peptide array signal) (RAG2; RAG2, each array performed twice, total n = 4): 0.2372
Array Heatmap value (peptide array signal) (MORC3 (CW); MORC3 (CW), each array performed twice, total n = 4): 0.4909
Array Heatmap value (peptide array signal) (TAF3; TAF3, each array performed twice, total n = 4): 0.2562
Array Heatmap value (peptide array signal) (KDM5A (3); KDM5A (3), each array performed twice, total n = 4): 0.4863
Array Heatmap value (peptide array signal) (PHF21A; PHF21A, each array performed twice, total n = 4): 0.4363
Array Heatmap value (peptide array signal) (ING5; ING5, each array performed twice, total n = 4): 0.3453
Array Heatmap value (peptide array signal) (PHRF1 (RP); PHRF1 (RP), each array performed twice, total n = 4): 0.68
Array Heatmap value (peptide array signal) (KDM5B (3); KDM5B (3), each array performed twice, total n = 4): 0.4657
Array Heatmap value (peptide array signal) (PHF13; PHF13, each array performed twice, total n = 4): 0.5924
Array Heatmap value (peptide array signal) (CHD5 (PCC); CHD5 (PCC), each array performed twice, total n = 4): 0.6958
Array Heatmap value (peptide array signal) (ING3; ING3, each array performed twice, total n = 4): 0.4476
Array Heatmap value (peptide array signal) (KDM5A (1); KDM5A (1), each array performed twice, total n = 4): 0.4665
Array Heatmap value (peptide array signal) (PHF23; PHF23, each array performed twice, total n = 4): 0.526
Array Heatmap value (peptide array signal) (KDM7A; KDM7A, each array performed twice, total n = 4): 0.3346
Array Heatmap value (peptide array signal) (SP140L; SP140L, each array performed twice, total n = 4): 0.3597
Array Heatmap value (peptide array signal) (PHF2; PHF2, each array performed twice, total n = 4): 0.4393
Array Heatmap value (peptide array signal) (ING1; ING1, each array performed twice, total n = 4): 0.5079
Array Heatmap value (peptide array signal) (ING4; ING4, each array performed twice, total n = 4): 0.4368
Array Heatmap value (peptide array signal) (ING2; ING2, each array performed twice, total n = 4): 0.596
Array Heatmap value (peptide array signal) (PHF8; PHF8, each array performed twice, total n = 4): 0.3314
Array Heatmap value (peptide array signal) (BAZ2B; BAZ2B, each array performed twice, total n = 4): 0.4309
Array Heatmap value (peptide array signal) (KDM5B (1); KDM5B (1), each array performed twice, total n = 4): 0.696
Array Heatmap value (peptide array signal) (CHD5 (PPCC); CHD5 (PPCC), each array performed twice, total n = 4): 0.5376
Array Heatmap value (peptide array signal) (MLL5; MLL5, each array performed twice, total n = 4): 0.5116
Array Heatmap value (peptide array signal) (TRIM66 (PB); TRIM66 (PB), each array performed twice, total n = 4): 0.6504
Array Heatmap value (peptide array signal) (DIDO1; DIDO1, each array performed twice, total n = 4): 0.6401

H3K23me1 15-34: H3 15-34
Array Heatmap signal, AIRE (PP) (AIRE (PP); GST-tagged AIRE (PP), arrays performed twice, total replicate number n = 4): 0.4449
Array Heatmap signal, CHD4 (PPCC) (CHD4 (PPCC); GST-tagged CHD4 (PPCC), arrays performed twice, total replicate number n = 4): 0.5163
Array Heatmap signal, DPF2 (PPC2W2) (DPF2 (PPC2W2); GST-tagged DPF2 (PPC2W2), arrays performed twice, total replicate number n = 4): 0.6371
Array Heatmap signal, BPTF (PB) (BPTF (PB); GST-tagged BPTF (PB), arrays performed twice, total replicate number n = 4): 0.3041
Array Heatmap signal, KDM4C (TTP) (KDM4C (TTP); GST-tagged KDM4C (TTP), arrays performed twice, total replicate number n = 4): 0.4583
Array Heatmap signal, RAG2 (RAG2; GST-tagged RAG2, arrays performed twice, total replicate number n = 4): 0.2067
Array Heatmap signal, MORC3 (CW) (MORC3 (CW); GST-tagged MORC3 (CW), arrays performed twice, total replicate number n = 4): 0.2751
Array Heatmap signal, TAF3 (TAF3; GST-tagged TAF3, arrays performed twice, total replicate number n = 4): 0.2405
Array Heatmap signal, KDM5A (3) (KDM5A (3); GST-tagged KDM5A (3), arrays performed twice, total replicate number n = 4): 0.3565
Array Heatmap signal, PHF21A (PHF21A; GST-tagged PHF21A, arrays performed twice, total replicate number n = 4): 0.4373
Array Heatmap signal, ING5 (ING5; GST-tagged ING5, arrays performed twice, total replicate number n = 4): 0.3097
Array Heatmap signal, PHRF1 (RP) (PHRF1 (RP); GST-tagged PHRF1 (RP), arrays performed twice, total replicate number n = 4): 0.3534
Array Heatmap signal, KDM5B (3) (KDM5B (3); GST-tagged KDM5B (3), arrays performed twice, total replicate number n = 4): 0.4273
Array Heatmap signal, PHF13 (PHF13; GST-tagged PHF13, arrays performed twice, total replicate number n = 4): 0.5337
Array Heatmap signal, CHD5 (PCC) (CHD5 (PCC); GST-tagged CHD5 (PCC), arrays performed twice, total replicate number n = 4): 0.7691
Array Heatmap signal, ING3 (ING3; GST-tagged ING3, arrays performed twice, total replicate number n = 4): 0.3997
Array Heatmap signal, KDM5A (1) (KDM5A (1); GST-tagged KDM5A (1), arrays performed twice, total replicate number n = 4): 0.4342
Array Heatmap signal, PHF23 (PHF23; GST-tagged PHF23, arrays performed twice, total replicate number n = 4): 0.4553
Array Heatmap signal, KDM7A (KDM7A; GST-tagged KDM7A, arrays performed twice, total replicate number n = 4): 0.3872
Array Heatmap signal, SP140L (SP140L; GST-tagged SP140L, arrays performed twice, total replicate number n = 4): 0.3205
Array Heatmap signal, PHF2 (PHF2; GST-tagged PHF2, arrays performed twice, total replicate number n = 4): 0.3956
Array Heatmap signal, ING1 (ING1; GST-tagged ING1, arrays performed twice, total replicate number n = 4): 0.468
Array Heatmap signal, ING4 (ING4; GST-tagged ING4, arrays performed twice, total replicate number n = 4): 0.3978
Array Heatmap signal, ING2 (ING2; GST-tagged ING2, arrays performed twice, total replicate number n = 4): 0.5717
Array Heatmap signal, PHF8 (PHF8; GST-tagged PHF8, arrays performed twice, total replicate number n = 4): 0.3239
Array Heatmap signal, BAZ2B (BAZ2B; GST-tagged BAZ2B, arrays performed twice, total replicate number n = 4): 0.4158
Array Heatmap signal, KDM5B (1) (KDM5B (1); GST-tagged KDM5B (1), arrays performed twice, total replicate number n = 4): 0.6704
Array Heatmap signal, CHD5 (PPCC) (CHD5 (PPCC); GST-tagged CHD5 (PPCC), arrays performed twice, total replicate number n = 4): 0.4785
Array Heatmap signal, MLL5 (MLL5; GST-tagged MLL5, arrays performed twice, total replicate number n = 4): 0.5166
Array Heatmap signal, TRIM66 (PB) (TRIM66 (PB); GST-tagged TRIM66 (PB), arrays performed twice, total replicate number n = 4): 0.5248
Array Heatmap signal, DIDO1 (DIDO1; GST-tagged DIDO1, arrays performed twice, total replicate number n = 4): 0.5926

From paper PMC6979384, “Characterization of the plant homeodomain (PHD) reader family for their histone tail interactions” (Epigenetics & Chromatin, 2020)
